Patent US5008282A, “Cyclic guanidine derivatives, anti-ulceratives and methods of manufacturing the same” (Kotobuki Seiyaku Co. Ltd., priority 1988, dated 1991)
pIC50: −log10 of the molar value. Structures can show the parent of a compound that is named as a salt.

Key:
(H^+, K^+)ATPase = target: T1, (H^+, K^+)ATPase (Sus scrofa, UniProt P19156); assay: Inhibition of (H^+, K^+)ATPase activities; assay type: biochemical; details: pig gastric mucosa ATPase; pH 7.4; 2 mM MgCl2; 10 mM KCl; 37° C; read-out: (H^+,K^+)ATPase IC50 (Concentration of 50% inhibition)
T1 construct: ATPase is prepared from the pig gastric mucosa; from tissue; host or cells: pig gastric mucosa
Procedure: Inhibition of (H^+, K^+)ATPase activities. Inhibition of (H^+, K^+)ATPase activities is determined by the method of F. Fellenius et al., [Nature 290, 159-61, (1981)]. (H^+, K^30 )ATPase is prepared from the pig gastric mucosa and the test compound is incubated with 2 mM of […], 40 mM of tris-buffer (pH 7.4), 2 mM of MgCl2 and 10 mM of KCl at 37° C. Inorganic phosphate occurring by stimulation of ATPase is determined.

[1] = tested on: histamine-stimulated acid secretion; assay: Inhibitory activities of gastric-acid secretion in the acute fistula rat; assay type: in vivo; details: 50 mg/kg oral, histamine.2HCl 10 mg/kg s.c. 4 hours after compound, Male Wistar rats, read-out: Total acid inhibition (inhibitory percent of compounds on histamine-stimulated acid secretion)
Procedure: Inhibitory activities of gastric-acid secretion in the acute fistula rat.
Determination of gastric-acid secretion is performed by the method of Y. Goto et al.(Expenentia 32, 946, (1976)). Male Wistar rats are anesthetized with urethane (1.2 g/kg, i.p.) 2 hours after the oral administration of compounds. A dual polyethylene cannula is introduced into the gastric lumen after ligation of the pylorus and the esophagus. The stomach is rinsed with 5 ml of saline through the gastric cannula at 15 min interval. The acid output during 15 minutes period is titrated with 0.01N NaOH. Histamine.2HCl (10 mg/kg, s.c.) is administered as a secretory agent 4 hours after the administration of compounds.

T1 sequence (P19156 2-1034 limits assumed): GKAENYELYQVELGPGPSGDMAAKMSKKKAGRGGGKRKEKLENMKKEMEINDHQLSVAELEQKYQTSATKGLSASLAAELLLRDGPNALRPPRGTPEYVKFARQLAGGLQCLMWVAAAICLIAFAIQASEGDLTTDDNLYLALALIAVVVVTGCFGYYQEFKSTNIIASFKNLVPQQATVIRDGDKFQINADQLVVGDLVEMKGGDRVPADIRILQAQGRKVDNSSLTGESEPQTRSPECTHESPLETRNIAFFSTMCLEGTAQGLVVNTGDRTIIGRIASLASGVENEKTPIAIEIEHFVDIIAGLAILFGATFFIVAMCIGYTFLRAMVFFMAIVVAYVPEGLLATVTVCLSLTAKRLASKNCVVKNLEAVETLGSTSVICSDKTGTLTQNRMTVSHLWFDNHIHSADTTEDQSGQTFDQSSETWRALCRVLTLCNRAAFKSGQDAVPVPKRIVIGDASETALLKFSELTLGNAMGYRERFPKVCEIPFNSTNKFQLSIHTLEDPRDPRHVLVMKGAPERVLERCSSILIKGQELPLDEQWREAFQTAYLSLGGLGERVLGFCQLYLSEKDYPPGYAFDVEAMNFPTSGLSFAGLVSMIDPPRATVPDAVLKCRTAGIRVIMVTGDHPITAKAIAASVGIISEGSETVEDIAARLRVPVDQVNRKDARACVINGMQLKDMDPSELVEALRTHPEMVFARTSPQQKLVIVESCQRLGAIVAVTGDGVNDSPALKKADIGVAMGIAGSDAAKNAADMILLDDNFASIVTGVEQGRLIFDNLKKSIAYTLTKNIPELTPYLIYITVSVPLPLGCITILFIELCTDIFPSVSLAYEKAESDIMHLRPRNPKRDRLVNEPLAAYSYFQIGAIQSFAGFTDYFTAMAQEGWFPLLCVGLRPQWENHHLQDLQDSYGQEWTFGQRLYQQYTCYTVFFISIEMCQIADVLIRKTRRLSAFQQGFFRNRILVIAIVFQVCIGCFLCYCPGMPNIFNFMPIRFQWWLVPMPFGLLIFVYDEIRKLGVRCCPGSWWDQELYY
T1 sequence (P18434 whole entry partner): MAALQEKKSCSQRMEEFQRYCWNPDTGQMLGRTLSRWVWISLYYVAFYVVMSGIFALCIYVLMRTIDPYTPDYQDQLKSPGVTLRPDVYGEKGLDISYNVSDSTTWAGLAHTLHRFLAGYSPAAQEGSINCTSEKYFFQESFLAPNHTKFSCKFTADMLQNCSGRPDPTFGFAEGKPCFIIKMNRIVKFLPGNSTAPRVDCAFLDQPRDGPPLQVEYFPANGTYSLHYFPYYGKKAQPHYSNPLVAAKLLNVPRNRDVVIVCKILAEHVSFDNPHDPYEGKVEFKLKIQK

pIC50 ((H^+, K^+)ATPase)	Structure (SMILES)	inhibition in vivo at 50 mg/kg [1] [%]
5.85	CC(=O)Sc1c(-c2ccc(F)cc2)nc2nc3cccccc3n12 [Compound 55, 3-(acetyl)thio-(4-fluorophenyl)-cyclohept[d]imidazo[1,2-a]imidazole]	
6.10	CC(=O)Sc1c(-c2ccc(Cl)cc2)nc2nc3cccccc3n12 [Compound 57, 3-(acetyl)thio-2-(4-chlorophenyl)-cyclohept[d]imidazo[1,2-a]imidazole]	
4.76	CCC(=O)Sc1c(C)nc2nc3cccccc3n12 [Compound 66, 3-(Propionyl)thio-2-methyl-cyclohept[d]imidazo[1,2-a]imidazole]	63.7
4.64	C/C=C/C(=O)Sc1c(C)nc2nc3cccccc3n12 [Compound 69, 3-(Crotonoyl)thio-2-methyl-cyclohept[d]imidazo[1,2-a]imidazole]	83.5
5.23	COCC(=O)Sc1c(C)nc2nc3cccccc3n12 [Compound 72, 3-(Methoxyacetyl)thio-2-methyl-cyclohept[d]imidazo[1,2-a]imidazole]	
4.26	COCCC(=O)Sc1c(C)nc2nc3cccccc3n12 [Compound 75, 3-(3-MethoxyPropionyl)thio-2-methyl-cyclohept[d]imidazo[1,2-a]imidazole]	
5.55	Cc1nc2nc3cccccc3n2c1SC(=O)C(C)C [Compound 81, 3-(isobutyryl)thio-2-methyl-cyclohept[d]imidazo[1,2-a]imidazole]	79.8
4.59	CCC(=O)Sc1c(-c2ccccc2)nc2n(C)c3ccccc3n12 [Compound 87, 3-(Propionyl)thio-2-phenyl-9-methyl-9H-imidazo[1,2-a]benzimidazole]	53.8
4.80	Cn1ccn2c(SC(=O)COc3ccccc3)c(-c3ccccc3)nc12 [Compound 92, 5-(Phenoxyacetyl)thio-6-phenyl-1-methyl-1H-imidazo[1,2-a]imidazole]	65.6

The remaining lines, values behind:

Structure (SMILES)	pIC50 ((H^+, K^+)ATPase)	inhibition in vivo at 50 mg/kg [1] [%]
C=CCSc1c2ccccn2c2nc3c(n12)CCCCC3 [Compound 16, 13-(2-Propenyl)thio-pyrido[1',2':3,4]imidazo[1,2-a]-7,8,9,10,11pentahydro-cycloheptimidazole]	4.78	
C#CCSc1c2ccccn2c2nc3c(n12)CCCCC3 [Compound 18]	5.51	
CC#CCSc1c2ccccn2c2nc3c(n12)CCCCC3 [Compound 19, 13-(2-Butynyl)thio-pyrido[1',2':3,4]imidazo[1,2-a]-7,8,9,10,11pentahydro-cycloheptimidazole]	4.33	
CCC(=O)Sc1c2ccccn2c2nc3c(n12)CCCCC3 [Compound 21, 13-(Propionyl)thio-pyrido[1',2':3,4]imidazo[1,2-a]-7,8,9,10,11pentahydro-cycloheptimidazole fumarate]	4.74	64.9
c1ccn2c(c1)c(SCCN1CCCCC1)n1c3c(nc12)CCCCC3 [Compound 23, 13-[2-(1-Piperidino)ethyl]thio-pyrido[1',2':3,4]imidazo[1,2-a]7,8,9,10,11-pentahydro-cycloheptimidazole]	4.04	
CC(=O)Sc1c(-c2ccccc2)nc2nc3cccccc3n12 [Compound 34, 3-(Acetyl)thio-2-phenyl-cyclohept[d]imidazo[1,2-a]imidazole]	5.61	76.6
CCC(=O)Sc1c(-c2ccccc2)nc2nc3cccccc3n12 [Compound 35, 3-(Propionyl)thio-2-phenyl-cyclohept[d]imidazo[1,2-a]imidazole]	4.98	54
C=CC(=O)Sc1c(-c2ccccc2)nc2nc3cccccc3n12 [Compound 37, 3-(Acryloyl)thio-2-phenyl-cyclohept[d]imidazo[1,2-a]imidazole]	5.66	51.5
C/C=C/C(=O)Sc1c(-c2ccccc2)nc2nc3cccccc3n12 [Compound 38, 3-(Crotonoyl)thio-2-phenyl-cyclohept[d]imidazo[1,2-a]imidazole]	4.88	63.4
COCC(=O)Sc1c(-c2ccccc2)nc2nc3cccccc3n12 [Compound 43, 3-(Methoxyacetyl)thio-2-phenyl-cyclohept[d]imidazo[1,2-a]imidazole]	5.65	53.8
COCCC(=O)Sc1c(-c2ccccc2)nc2nc3cccccc3n12 [Compound 44, 3-(3-Methoxypropionyl)thio-2-phenyl-cyclohept[d]imidazo[1,2-a]imidazole]	5.06	80.7
O=C(Sc1c(-c2ccccc2)nc2nc3cccccc3n12)c1ccccn1 [Compound 48, 3-(Picolinoyl)thio-2-phenyl-cyclohept[d]imidazo[1,2-a]imidazole]	5.57	
CCCCC(=O)Sc1c(-c2ccccc2)nc2nc3ccc(C(C)C)ccc3n12 [Compound 53, 3-(valeryl)thio-2-phenyl-7-isopropyl-cyclohept[d]imidazo[1,2-a]imidazole]	5.71	73.7
CC(=O)Sc1c(C)nc2nc3cccccc3n12 [Compound 65, 3-(Acetyl)thio-2-methyl-cyclohept[d]imidazo[1,2-a]imidazole]		68.8
Cc1nc2nc3cccccc3n2c1SC(=O)C(C)(C)C [Compound 68, 3-(Pivaloyl)thio-2-methyl-cyclohept[d]imidazo[1,2-a]imidazole]		73.9
Cc1nc2nc3cccccc3n2c1SC(=O)c1ccccn1 [Compound 76, 3-(Picolinoyl)thio-2-methyl-cyclohept[d]imidazo[1,2-a]imidazole]		83.7
Cc1nc2nc3cccccc3n2c1SC(=O)c1ccccc1 [Compound 77, 3-(Benzoyl)thio-2-methyl-cyclohept[d]imidazo[1,2-a]imidazole]		82.5
CCCCC(=O)Sc1c(C)nc2nc3cccccc3n12 [Compound 82, 3-(valeryl)thio-2-methyl-cyclohept [d]imidazo[1,2-a]imidazole]		81.2
